Data taken from US20040077621A1, “Antioxidants” (Academia Sinica, priority 2002, published 2004).

Assays:
[1] = DPPH scavenging assay; type: physicochemical; settings: DPPH free radical
Experimental: (§1) The biological activities (e.g., antioxidative activities) of tetrapyrrole compounds described above can be evaluated by a number of assays. For example, an antioxidative activity of a test compound is evaluated by determining the compound's ability to inhibit the formation of conjugated diene during […] linoleic acid peroxidation (Wallin et al (1993) Anal. Biochem. 208: 10-15), or to inhibit the formation of malonyldialdhyde (MDA) during human low density lipoprotein (LDL) peroxidation (Yagi (1982) In lipid peroxides in Biology and Medicine. Yagi, K. (ed), pp. 223-242, Academic Press, New York). In another example, an antioxidative activity of a test compound is evaluated by determining the compound's ability to scavenge the free radicals of ? -diphenyl- ? -picrylhydrazyl (DPPH), or to scavenge superoxide anion, or to chelate Fe2+ cation, or to reduce power. See, e.g., Shimada et aL (1992) J. Agric. Food. Chem. 40: 945-948; Robak & Gryglewski (1988) Biochem. Pharma. 37: 837-841; Dinis et aL (1994) Arch Biochem Biophys 315: 161-169; and Oyaizu (1986) Nippon Shokuhin Kogyo Gakkaishi 35: 771-775.
The compounds were also tested in four other assays, i.e., DPPH scavenging assay, superoxide anion scavenging assay, Fe^2+ chelation assay, and reduction assay. See Shimada et al. J. Agric. Food Chem. (1992) 40:945-948; Robak et al. Biochem. Pharnia. (1988) 37:837-841; Dinis et al. Arch. Biochem. Biophys. (1994) 315:161-169; and Oyaizu et al. Nippon Shokuhin Kogyo Gakkaishi (1986) 35:771-775. Compounds 3 and 4 were stronger scavengers than Compounds 5 and 6 in removing DPPH, which in turn were stronger scavengers than chlorophylls a and b and Compounds 1 and 2. […] The I50 values as to chelating Fe^2+ were lower than those as to scavenging DPPH free radical.

[2] = system: human low density lipoprotein (LDL); assay: LDL measurement assay (MDA formation during LDL peroxidation); type: biochemical
Experimental: as §1
Under a linoleic acid emulsion assay (see, e.g., Mitsuda et al. Eiyo Shokuryo (1966) 19:210-0.214 and Wallin et al. Anal. Biochem. (1993) 208:10-15), various degrees of inhibition of conjugated diene formation were observed during lipid peroxidation. In addition to Compounds 1-6, chlorophylls a and b were also tested. […] Further, compounds chelated with Mg, e.g., Compounds 1 and 2, had stronger antioxidative property than those without chelation, e.g., Compounds 3 and 4.

[3] = superoxide anion scavenging assay; type: physicochemical; settings: increasing concentrations
Experimental: as §1
The compounds were also tested in four other assays, i.e., DPPH scavenging assay, superoxide anion scavenging assay, Fe^2+ chelation assay, and reduction assay. See Shimada et al. J. Agric. Food Chem. (1992) 40:945-948; Robak et al. Biochem. Pharnia. […]

Work on `C=Cc1c(C)c2cc3nc(c4c5[nH]c(cc6nc(cc1[nH]2)C(C=O)=C6CC)c(C)c5C(=O)[C@@H]4C(=O)OC)[C@@H](CCC(=O)OC/C=C(\C)CCC[C@H](C)CCC[C@H](C)CCCC(C)C)[C@@H]3C` [chlorophyll b, reference compound] yielded an IC50 [1] of ~200 µM and an IC50 [2] of 26 µM.

With `C=Cc1c(C)c2cc3nc(c4c5[nH]c(cc6nc(cc1[nH]2)C(C=O)=C6CC)c(C)c5C(=O)C4C(=O)OC)C(CCC(=O)OCC=C(C)CCCC(C)CCCC(C)CCCC(C)C)C3C` (stereo not shown) [Compound 6] the IC50 [1] was ~120 µM, the “superoxide anion scavenging ability as concentration increased” value [3] was “a gradual increase and a subsequent plateau in their scavenging ability” and the IC50 [2] was 54 µM.

`C=Cc1c(C)c2cc3nc(c4c5[nH]c(cc6nc(cc1[nH]2)C(C=O)=C6CC)c(C)c5C(=O)[C@@H]4C(=O)OC)[C@@H](CCC(=O)O)[C@@H]3C` [Compound 4] gave an IC50 [1] of ~28 µM and an IC50 [2] of 20 µM.

In the case of `C=Cc1c(C)c2cc3nc(c4c5[nH]c(cc6nc(cc1[nH]2)C(C)=C6CC)c(C)c5C(=O)C4C(=O)OC)C(CCC(=O)OCC=C(C)CCCC(C)CCCC(C)CCCC(C)C)C3C` (stereo not shown) [Compound 5], the IC50 [1] is reported as ~160 µM, the “superoxide anion scavenging ability as concentration increased” value [3] is reported as “a gradual increase and a subsequent plateau in their scavenging ability” and the IC50 [2] is reported as 17 µM.

`C=Cc1c(C)c2cc3nc(c4c5[nH]c(cc6nc(cc1[nH]2)C(C)=C6CC)c(C)c5C(=O)[C@@H]4C(=O)OC)[C@@H](CCC(=O)O)[C@@H]3C` [Compound 3] showed an IC50 [1] of ~40 µM and an IC50 [2] of 21 µM.

In the case of `C=Cc1c(C)c2cc3nc(c4c5[nH]c(cc6nc(cc1[nH]2)C(C=O)=C6CC)c(C)c5C(=O)[C@@H]4C(=O)OC)[C@@H](CCC(=O)O)[C@@H]3C` [Compound 2], the IC50 [1] is reported as ~535 µM and the IC50 [2] is reported as 42 µM.

For `C=Cc1c(C)c2cc3nc(c4c5[nH]c(cc6nc(cc1[nH]2)C(C)=C6CC)c(C)c5C(=O)[C@@H]4C(=O)OC)[C@@H](CCC(=O)OC/C=C(\C)CCC[C@H](C)CCC[C@H](C)CCCC(C)C)[C@@H]3C` [chlorophyll a, reference compound], the IC50 [1] was ~265 µM and the IC50 [2] was 5 µM.

`Cc1c(C)c2c(c(C)c1O)CCC(C)(C(=O)O)O2` (stereo not shown) [Trolox, reference compound] gave an IC50 [2] of ~16 µM.

For `C=Cc1c(C)c2cc3nc(c4c5[nH]c(cc6nc(cc1[nH]2)C(C)=C6CC)c(C)c5C(=O)[C@@H]4C(=O)OC)[C@@H](CCC(=O)O)[C@@H]3C` [Compound 1], the IC50 [1] was > 700 µM and the IC50 [2] was 10 µM.
